Patent US20150203474A1, “SOLID FORMS COMPRISING INHIBITORS OF HCV NS5A, COMPOSITIONS THEREOF, AND USES THEREWITH” (PRESIDIO PHARMACEUTICALS ,INC., priority 2012, published 2015)
Like-named read-outs stand apart in the source and are kept apart here.

How the values were obtained:
[1] = PK study of Form A of Compound I in rats; assay type: in vivo; settings: male, Sprague-Dawley, rat, plasma, po, 75 mg/kg, single PO dose of 75 mg/kg, male SD rats
Experimental: The pharmacokinetics (PK) properties of Form A of Compound I and Form I of Compound II were determined in a series of comprehensive experiments in preclinical species including Sprague-Dawley rats, beagle dogs, cynomolgus monkeys. In those studies, the Form A crystalline salt of Compound I (and Form I crystalline salt of Compound II) was formulated in saline, 0.5% MC in saline or other commonly used suitable formulation vehicles to give a clear solution or as a suspension or a paste depending on the concentration intended to reach and the choice of vehicles. Dosing was by oral gavage. Blood samples were drawn and placed into individual tube containing K2EDTA. Blood samples were put on ice and centrifuged (2000 g for 5 minutes at 4° C.) to obtain plasma within 15 minutes after collection. Plasma samples were stored at approximately −80° C. freezer until analysis. For most of these analyses, Compound I (and Compound II) and the internal standard (IS) were extracted from rat, monkey or dog plasma by protein precipitation, and the extract was evaporated, reconstituted and analyzed using HPLC with tandem mass spectrometric detection (HPLC-MS/MS), see examples for further details. Calibration was accomplished by weighted linear regression of the ratio of the peak area of analyte to that of the added internal standard (IS). For the validated assay in rat and monkey EDTA plasma, the Lower Limit of Quantitation (LLOQ) for both compound 1 and 2 was 5.00 ng/mL, and the assay was linear from 5.00-1,000 ng/mL. PK parameters were calculated by non-compartmental analysis using WinNonlin (versions 4.1 through 6.1). 1) Weighed 922.80 mg of Form A of Compound I (equivalent to 824.603 mg of free base) into a clean tube. 2) Added 54.974 mL of 0.5% methylcellulose in saline into the tube containing the Form A of Compound I, vortexed for 3-5 min and sonicated for 10-15 min. The dosing solution was a light yellow and clear solution. Sprague Dawley rats, ˜7-9 weeks old and weighing ˜210-270 g, were given the above dosing solution at 5 mL/kg. […] Sample Preparation for Analysis: An aliquot of 30 μL of plasma sample was mixed with 30 μL of the IS (200 ng/mL), then mixed with 150 μL ACN for protein precipitation. The mixture was vortexed for 2 min and centrifuged at 12000 rpm for 5 min. An aliquot of 1 μL of supernatant was injected onto HPLC-MS/MS, if no further dilution was needed. To prepare a 10-fold diluted plasma samples, an aliquot of 10 μL plasma sample was mixed with 90 μL blank plasma to obtain the diluted plasma samples. The extraction procedure for diluted samples was as the same as that used for the non-diluted samples. • Compound Concentration Quantitation: • Instrument HPLC-MS/MS-12 (API4000), on positive ionization mode, ESI+ • HPLC Conditions Mobile Phase A: H2O—0.025% formic acid (FA)—1 mM NH4OAc • Mobile Phase B: MeOH—0.025% FA—1 mM NH4OAc Pharmacokinetic analysis was done using the WinNonlin software (Version 5.3, Pharsight Corporation, California, USA). Any concentration data under LLOQ (LLOQ=1.00 ng/mL in rat plasma and 3.00 ng/mL in rat liver homogenate) were replaced with “BQL”.

[2] = Moisture sorption/desorption (DVS) of Compound I Form A; assay type: physicochemical; settings: 25° C.
Experimental: Dynamic vapor sorption/desorption (DVS) data were collected on a VTI SGA-100 Vapor Sorption Analyzer. NaCl and PVP were used as calibration standards. Samples were not dried prior to analysis. Adsorption and desorption data were collected over a range from 5 to 95% RH at 10% RH increments under a nitrogen purge. The equilibrium criterion used for analysis was less than 0.0100% weight change in 5 minutes with a maximum equilibration time of 3 hours. Data were not corrected for the initial moisture content of the samples. Moisture sorption/desorption data were collected for the sample on a VTI […] Vapor Sorption Analyzer. NaCl and PVP were used as calibration standards. Samples were vacuum dried prior to analysis. Sorption and desorption data were collected over a range from 5 to 95% RH at 10% RH increments under a nitrogen purge. The equilibrium criterion used for analysis was less than 0.0100% weight change in 5 minutes with a maximum equilibration time of 3 hours. Data were not corrected for the initial moisture content of the samples. FIG. 15 illustrates the graphed Weight % vs. Relative Humidity.

[3] = Mean (N = 3), read-out: mean plasma concentration
[4] = Rat #1, read-out: plasma concentration
[5] = Rat #2, read-out: plasma concentration
[6] = Rat #3, read-out: plasma concentration
[7] = with respect to the initial sample weight

COC(=O)N[C@H](C(=O)N1CCC[C@H]1c1ncc(-c2ccc3cc(-c4ccc5nc([C@@H]6CCCN6C(=O)[C@@H](NC(=O)OC)C(C)C)[nH]c5c4)ccc3c2)[nH]1)C(C)C [Form A of Compound I]
concentration at 1 h [1, 3]: 5970 ng/mL
concentration at 1 h [1, 4]: 6210 ng/mL
concentration at 1 h [1, 5]: 5480 ng/mL
concentration at 1 h [1, 6]: 6230 ng/mL
concentration at 2 h [1, 3]: 7430 ng/mL
concentration at 2 h [1, 4]: 8030 ng/mL
concentration at 2 h [1, 5]: 7890 ng/mL
concentration at 2 h [1, 6]: 6380 ng/mL
concentration at 3 h [1, 3]: 8340 ng/mL
concentration at 3 h [1, 4]: 5670 ng/mL
concentration at 3 h [1, 5]: 8060 ng/mL
concentration at 3 h [1, 6]: 11300 ng/mL
concentration at 4 h [1, 3]: 3930 ng/mL
concentration at 4 h [1, 4]: 3680 ng/mL
concentration at 4 h [1, 5]: 5170 ng/mL
concentration at 4 h [1, 6]: 2930 ng/mL
concentration at 6 h [1, 3]: 2850 ng/mL
concentration at 6 h [1, 4]: 2780 ng/mL
concentration at 6 h [1, 5]: 3370 ng/mL
concentration at 6 h [1, 6]: 2400 ng/mL
concentration at 8 h [1, 3]: 531 ng/mL
concentration at 8 h [1, 4]: 498 ng/mL
concentration at 8 h [1, 5]: 704 ng/mL
concentration at 8 h [1, 6]: 390 ng/mL
concentration at 12 h [1, 3]: 176 ng/mL
concentration at 12 h [1, 4]: 188 ng/mL
concentration at 12 h [1, 5]: 277 ng/mL
concentration at 12 h [1, 6]: 63.6 ng/mL
concentration at 24 h [1, 3]: 8.07 ng/mL
concentration at 24 h [1, 4]: 8.12 ng/mL
concentration at 24 h [1, 5]: 7.95 ng/mL
concentration at 24 h [1, 6]: 8.15 ng/mL
Weight % chg ([2]; desorption, Samp RH 5.17 %): 0.673%
Weight % chg ([2]; desorption, Samp RH 14.73 %): 2.010%
Weight % chg ([2]; desorption, Samp RH 25.12 %): 3.025%
Weight % chg ([2]; desorption, Samp RH 35.13 %): 3.870%
Weight % chg ([2]; desorption, Samp RH 44.99 %): 4.590%
Weight % chg ([2]; desorption, Samp RH 55.17 %): 5.352%
Weight % chg ([2]; desorption, Samp RH 65.08 %): 5.993%
Weight % chg ([2]; desorption, Samp RH 75.27 %): 6.741%
Weight % chg ([2]; desorption, Samp RH 85.24 %): 7.855%
Weight % chg ([2]; sorption, Samp RH 5.09 %): −0.187%
Weight % chg ([2]; sorption, Samp RH 14.73 %): 0.065%
Weight % chg ([2]; sorption, Samp RH 24.93 %): 0.303%
Weight % chg ([2]; sorption, Samp RH 34.87 %): 0.521%
Weight % chg ([2]; sorption, Samp RH 44.91 %): 0.780%
Weight % chg ([2]; sorption, Samp RH 54.80 %): 1.082%
Weight % chg ([2]; sorption, Samp RH 64.95 %): 1.458%
Weight % chg ([2]; sorption, Samp RH 74.71 %): 1.868%
Weight % chg ([2]; sorption, Samp RH 84.57 %): 2.502%
Weight % chg ([2]; sorption, Samp RH 94.86 %): 10.824%
% wt change upon equilibration at 5% RH [2, 7]: −0.187 % wt
% wt gain from 5%-85% RH [2, 7]: 2.689 % wt
% wt gain from 85%-95% RH [2, 7]: 8.322 % wt
% wt lost from 95%-5% RH [2, 7]: 10.151 % wt
